Data published in ChEMBL document CHEMBL3885881, “DrugMatrix”.

Species on record: Rattus norvegicus
Experiment: DrugMatrix - Regimen: Daily Repeat
Assay type: toxicity, organism-based, Sprague-Dawley
Set-up: regimen Daily Repeat, gender Male, age 6-8 weeks
Conditions: in vivo, po, route oral GAVAGE, […]; for TOTAL BILIRUBIN / TOTAL PROTEIN / URIC ACID / ALANINE AMINOTRANSFERASE / ALBUMIN / ALKALINE PHOSPHATASE / ASPARTATE AMINOTRANSFERASE / BLOOD UREA NITROGEN / CARBON DIOXIDE / CHLORIDE / CHOLESTEROL / CREATINE PHOSPHOKINASE / CREATININE / GLUCOSE / LACTATE DEHYDROGENASE / LIPASE / PHOSPHORUS / POTASSIUM / SODIUM: tissue Plasma; for ABSOLUTE BASOPHIL / ABSOLUTE EOSINOPHIL / ABSOLUTE LYMPHOCYTE / ABSOLUTE MONOCYTE / ABSOLUTE SEGMENTED NEUTROPHIL / BASOPHIL / EOSINOPHIL / ERYTHROCYTE COUNT / HEMATOCRIT / HEMOGLOBIN / LEUKOCYTE COUNT / LYMPHOCYTE / MEAN CORPUSCULAR HEMOGLOBIN / MEAN CORPUSCULAR HEMOGLOBIN CONCENTRATION / MEAN CORPUSCULAR VOLUME / MONOCYTE / NEUTROPHIL / NUCLEATED RED BLOOD CELLS / PLATELET COUNT: tissue Blood
[1] = 52 mg/kg, 120 h, dose level Low, time 5 day
[2] = 89 mg/kg, 72 h, dose level M1, time 3 day
[3] = 89 mg/kg, 120 h, dose level M1, time 5 day

Question: Which results are given for `Clc1ccccc1C(c1ccccc1)(c1ccccc1)n1ccnc1` [CLOTRIMAZOLE]?
Answer: TOTAL BILIRUBIN [1]: 0.1 mg/dL; TOTAL PROTEIN [1]: 6.03 G/DL; URIC ACID [1]: 0.63 mg/dL; ABSOLUTE BASOPHIL [2]: 0 CELLS/uL; ABSOLUTE EOSINOPHIL [2]: 25.67 CELLS/uL; ABSOLUTE LYMPHOCYTE [2]: 8596 CELLS/uL; ABSOLUTE MONOCYTE [2]: 0 CELLS/uL; ABSOLUTE SEGMENTED NEUTROPHIL [2]: 345 CELLS/uL; BASOPHIL [2]: 0%; EOSINOPHIL [2]: 0.33%; ERYTHROCYTE COUNT [2]: 5.65 x10E6/uL; HEMATOCRIT [2]: 35.6%; HEMOGLOBIN [2]: 13.1 G/DL; LEUKOCYTE COUNT [2]: 8.97 x10E3/uL; LYMPHOCYTE [2]: 95.33%; MEAN CORPUSCULAR HEMOGLOBIN [2]: 23.17 pg; MEAN CORPUSCULAR HEMOGLOBIN CONCENTRATION [2]: 36.8 G/DL; MEAN CORPUSCULAR VOLUME [2]: 63.03 fL; MONOCYTE [2]: 0%; NEUTROPHIL [2]: 4.33%; NUCLEATED RED BLOOD CELLS [2]: 0 /100WBC; PLATELET COUNT [2]: 1000.33 x10E3/uL; ALANINE AMINOTRANSFERASE [2]: 74.67 u/L; ALBUMIN [2]: 3.87 G/DL; ALKALINE PHOSPHATASE [2]: 348.33 u/L; ASPARTATE AMINOTRANSFERASE [2]: 101.33 u/L; BLOOD UREA NITROGEN [2]: 15.67 mg/dL; CARBON DIOXIDE [2]: 31.33 mmol/L; CHLORIDE [2]: 99.67 MEQ/L; CHOLESTEROL [2]: 51 mg/dL; CREATINE PHOSPHOKINASE [2]: 324.67 u/L; CREATININE [2]: 0.17 mg/dL; GLUCOSE [2]: 143.67 mg/dL; LACTATE DEHYDROGENASE [2]: 156.33 u/L; LIPASE [2]: 11 u/L; PHOSPHORUS [2]: 10.37 mg/dL; POTASSIUM [2]: 5.81 MEQ/L; SODIUM [2]: 144 MEQ/L; TOTAL BILIRUBIN [2]: 0.13 mg/dL; TOTAL PROTEIN [2]: 5.63 G/DL; URIC ACID [2]: 0.4 mg/dL; ABSOLUTE BASOPHIL [3]: 0 CELLS/uL; ABSOLUTE EOSINOPHIL [3]: 0 CELLS/uL; ABSOLUTE LYMPHOCYTE [3]: 14137.33 CELLS/uL; ABSOLUTE MONOCYTE [3]: 157.33 CELLS/uL; ABSOLUTE SEGMENTED NEUTROPHIL [3]: 1305.33 CELLS/uL; BASOPHIL [3]: 0%; EOSINOPHIL [3]: 0%; ERYTHROCYTE COUNT [3]: 5.79 x10E6/uL; HEMATOCRIT [3]: 36.4%; HEMOGLOBIN [3]: 13.37 G/DL; LEUKOCYTE COUNT [3]: 15.6 x10E3/uL; LYMPHOCYTE [3]: 91%; MEAN CORPUSCULAR HEMOGLOBIN [3]: 23.1 pg; MEAN CORPUSCULAR HEMOGLOBIN CONCENTRATION [3]: 36.73 G/DL; MEAN CORPUSCULAR VOLUME [3]: 62.87 fL; MONOCYTE [3]: 1%; NEUTROPHIL [3]: 8%; NUCLEATED RED BLOOD CELLS [3]: 0 /100WBC; PLATELET COUNT [3]: 1140.67 x10E3/uL; ALANINE AMINOTRANSFERASE [3]: 77.33 u/L; ALBUMIN [3]: 4.17 G/DL; ALKALINE PHOSPHATASE [3]: 461 u/L; ASPARTATE AMINOTRANSFERASE [3]: 103 u/L; BLOOD UREA NITROGEN [3]: 13.67 mg/dL; CARBON DIOXIDE [3]: 23.67 mmol/L; CHLORIDE [3]: 102 MEQ/L; CHOLESTEROL [3]: 58 mg/dL; CREATINE PHOSPHOKINASE [3]: 255 u/L; CREATININE [3]: 0.13 mg/dL; GLUCOSE [3]: 97.33 mg/dL; LACTATE DEHYDROGENASE [3]: 293 u/L; LIPASE [3]: 38.67 u/L; PHOSPHORUS [3]: 9.33 mg/dL; POTASSIUM [3]: 7.02 MEQ/L; SODIUM [3]: 147.95 MEQ/L; TOTAL BILIRUBIN [3]: 0.33 mg/dL; TOTAL PROTEIN [3]: 6.23 G/DL; URIC ACID [3]: 1.27 mg/dL
